# Experimental data published in PMC3116712 (ACS medicinal chemistry letters, 2011).
# Target: WT A/M2 proton channel (Influenza A virus, UniProt P0DOF5)
# Format: cell-based
# Conditions: TEVC
# Chain of WT A/M2 proton channel (P0DOF5 whole entry, looked up): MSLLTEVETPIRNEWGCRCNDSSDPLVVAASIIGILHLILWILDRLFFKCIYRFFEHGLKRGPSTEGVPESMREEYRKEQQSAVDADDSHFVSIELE
row,Structure (SMILES),activity against WT A/M2 channel (in words)
1,"O=S(=O)(O)C12CC3CC(CC(C3)C1)C2 [Compound 3, 1-adamantyl sulfonic acid]",inactive
2,O=C1CC2(CCCCC2)CC(=O)N1 [Compound 16],only weakly active
3,NN1C(=O)CC2(CCCCC2)CC1=O [Compound 17],only weakly active
4,OC1C2C3CC4C1C1C2CC3C41 (stereo not drawn) [Compound 19],only moderate inhibition
5,Cl.NC12CC3CC(C1)CC(CO)(C3)O2 [Compound 25],not active
6,CC12CC3(O)CC1(C)CC3(O)C2 [Compound 26],only moderately active
